Earlier results on one substance are cited in patent US20230405076A1, “COMPOSITION COMPRISING AKKERMANSIA MUCINIPHILA AND GREEN TEA EXTRACT” (A-MANSIA BIOTECH, priority 2020, published 2023).

For data set [1], the system named is Akkermansia genus in the Verrucomicrobia. The following applies: high fat diet mice, Ushiroda 2019.
The conditions of data set [2]: via EGCG promoted increase of Akkermansia muciniphila, Sheng 2018.

As to Epigallocatechin-3-gallate, the “abundance of the Akkermansia genus” value in data set [1] is on record as “increase”. In addition, the “diet-increased obesity, visceral fat, and insulin resistance” value in data set [2] is “effectively reduces”.
